From US20220146526A1, “METHOD FOR EVALUATING SAMPLE, ANALYSIS METHOD, METHOD FOR DETECTING DEGRADED SAMPLE, MARKER FOR DETECTING DEGRADED BLOOD PLASMA SAMPLE, AND MARKER FOR DETECTING DEGRADED SERUM SAMPLE” (SHIMADZU CORPORATION, priority 2019, published 2022)

Experiments:
Type in all cases: physicochemical, human
[1] = LC/MS of blood plasma sample: time from blood collection to cooling of blood (Table E); parameters: key to Rate of increase or decrease / Rate of increase or decrease (first value, increase): detection intensity relative to ≤1 min to cooling = 1; details: for Rate of increase or decrease: detection intensity relative to 1 at 1 minute or less, blood collection to cooling 5 minutes; for Increase or decrease: detection intensity, blood collection to cooling 5 minutes or more vs 1 minute or less
Description: At room temperature, 5 mL of blood from a healthy subject was taken into a blood-collecting vessel containing EDTA, and the blood-collecting vessel was inverted for mixing, then cooled, and allowed to stand at 4° C. Here, in order to investigate how the detection intensity of molecules contained in the sample was affected in a case where the time to cooling was set to 5 minutes or more as compared to that in a case where the time to cooling was set to 1 minute or less, preparations were performed under both the former condition and the latter condition. After standing, the blood sample was subjected to centrifugation under a condition of 4° C., 3000 rpm, and 15 minutes. […] After centrifugation, the blood-collecting vessel was left to stand at room temperature for 30 minutes, and the blood plasma was isolated during this 30 minutes. The obtained blood plasma sample was frozen and stored. Here, in order to investigate how the detection intensity of molecules contained in the sample was affected in cases where freezing and thawing was performed 4 times, 6 times, and 10 times after freezing as compared to that in a case where freezing and thawing was performed 2 times after freezing, freezing and thawing was performed under the respective conditions of 2, 4, 6, and 10 times.
Frozen blood plasma samples and serum samples were subjected to GC/MS or LC/MS. In GC/MS, the blood plasma samples and serum samples were subjected to methoxymation and trimethylsilylation and then introduced to GC-MS.
Analysis column: Discovery HS F5-3 (inner diameter of 2.1 mm, length of 150 mm, film thickness of 3 μm) (Sigma-Aldrich)
Column temperature: 40° C.
(A) 0.1% formic acid (dissolved in water)
(B) 0.1% formic acid (dissolved in acetonitrile)
Flow velocity: 0.25 mL/min
Ionization method: electrospray
Temperature: • Desolvation Line (DL) temperature: 250° C. • Heat block temperature: 400° C. • Interface temperature: 300° C.
Gas flow rate: • Nebulizer gas flow rate: 3.0 L/min • Drying gas flow rate: 10.0 L/min • Heating gas flow rate: 10.0 L/min
Mode: multiple reaction monitoring (MRM)
The rate of increase or decrease in Table E is the value of detection intensity relative to 1 that is the detection intensity in a case where the time from blood collection to cooling is set to 1 minute or less.

[2] = LC/MS of blood plasma sample: number of times of freezing and thawing (Table F); details: for Rate of increase or decrease: detection intensity relative to 1 at 2 times; for Increase or decrease: detection intensity
Outline: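 Values are detection intensities normalised to 1 for plasma thawed twice, compared against 4, 6 and 10 freeze-thaw cycles. Measured by electrospray LC/MS in MRM mode, formic acid water/acetonitrile mobile phase, column at 40° C. Plasma came from EDTA blood, cooled to 4° C and spun at 3000 rpm for 15 min.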

[3] = LC/MS of blood plasma sample: time from blood collection to centrifugation (Table D); details: for Rate of increase or decrease: detection intensity relative to 1 at 15 minutes; for Rate of increase or decrease / Increase or decrease: blood collection to centrifugation; for Increase or decrease: detection intensity; for Rate of increase or decrease (second value, decrease) / Rate of increase or decrease (first value, increase): different from individual to individual, relative to 1 at 15 minutes, collection to centrifugation; for Rate of increase or decrease (second value, decrease): individuals with decrease; for Rate of increase or decrease (first value, increase): individuals with increase
Outline: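 Detection intensities are expressed relative to samples centrifuged 15 min after collection (=1), measured by electrospray LC/MS in MRM mode (Discovery HS F5-3, 40 °C, formic acid water/acetonitrile gradient at 0.25 mL/min). EDTA blood from a healthy donor was held at 4 °C, centrifuged at 4 °C, 3000 rpm, 15 min, and plasma frozen.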

[4] = LC/MS of serum sample: number of times of freezing and thawing (Table M); parameters: key to Rate of increase or decrease: detection intensity relative to 1 at 2 freeze-thaw cycles; details: for Rate of increase or decrease: 6 times of freezing and thawing; for Number of times when compound is affected / Increase or decrease: serum sample, LC/MS; for Number of times when compound is affected: detection intensity changed by 30% or more vs 2 times of freezing and thawing; for Increase or decrease: detection intensity vs 2 times of freezing and thawing
Outline: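 Values are detection intensities relative to serum thawed twice, versus 4, 6 or 10 freeze-thaw cycles. Serum came from blood spun at room temperature, 3500 rpm for 5 minutes. Analysis: electrospray LC/MS in MRM mode, Discovery HS F5-3 column, 40° C, 0.1% formic acid in water and acetonitrile.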

[5] = GC/MS of blood plasma sample: time from blood collection to centrifugation (Table A); details: blood collection to centrifugation
Outline: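 Read-out is MRM detection intensity by electron-ionization GC/MS on a BPX5 column after methoxymation and trimethylsilylation, expressed relative to a 15-minute collection-to-centrifugation interval. Plasma was prepared from EDTA blood held at 4° C and spun at 4° C, 3000 rpm for 15 minutes, then frozen.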

[6] = GC/MS of blood plasma sample: number of times of freezing and thawing (Table C)
Outline: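 Values express detection intensity as a ratio to the 2-cycle freeze-thaw sample (=1), compared with 4, 6 and 10 cycles. Healthy-donor EDTA plasma, cooled at ≤1 min or ≥5 min, spun at 4 °C, 3000 rpm, 15 min. Derivatised by methoxymation/trimethylsilylation; GC-MS/MS in MRM mode with electron ionization.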

[7] = LC/MS of serum sample: time from blood collection to centrifugation (Table J); details: for Rate of increase or decrease: detection intensity relative to 1 at 15 minutes; for Increase or decrease / Time when compound is affected: serum sample, LC/MS; for Increase or decrease: detection intensity vs 15 minutes from blood collection to centrifugation; for Time when compound is affected: time from blood collection to centrifugation, detection intensity changed by 30% or more vs 15 minutes
Outline: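 Detection intensities are expressed relative to 1 for samples centrifuged 15 min after blood collection; centrifugation was at room temperature, 3500 rpm, 5 min. Frozen serum was run by electrospray LC-MS in MRM mode, with 0.1% formic acid water/acetonitrile at 0.25 mL/min on a 40 °C F5 column.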

[8] = GC/MS of serum sample: number of times of freezing and thawing (Table I); details: serum, GC/MS
Outline: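 Detection intensities are ratios to the value after two freeze–thaw cycles, which is set as 1, compared against 4, 6 and 10 cycles. Analysis used methoxymation and trimethylsilylation derivatization, then GC/MS with EI ionization and multiple reaction monitoring on a BPX5 column. Serum came from blood held at room temperature and spun at 3500 rpm for 5 min.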

[9] = GC/MS of serum sample: time from centrifugation to isolation (Table H)
Outline: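 Values are GC/MS (EI, MRM) detection intensities of methoxymated/trimethylsilylated serum, normalised to 1 for the 30-min sample. Serum was isolated 30 min, 1 h or 6 h after room-temperature centrifugation (3500 rpm, 5 min) of blood.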

[10] = GC/MS of serum sample: time from blood collection to centrifugation (Table G); details: blood collection to centrifugation
Outline: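 Values express detection intensity as a ratio to the sample centrifuged 15 minutes after blood collection (taken as 1). Serum was derivatized by methoxymation and trimethylsilylation, then analysed by electron-ionization GC/MS using multiple reaction monitoring on a BPX5 column ramped from 60 to 330° C.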

[11] = freezing and thawing 4 times vs 2 times
[12] = freezing and thawing 10 times vs 2 times
[13] = relative to 1 at 2 times, different from individual to individual, first value (increase)
[14] = relative to 1 at 2 times, different from individual to individual, second value (decrease)

Compound | Rate of increase or decrease [1] | Increase or decrease [1] | Rate of increase or decrease ([2]; freezing and thawing 4 times) | Increase or decrease [2, 11] | Rate of increase or decrease ([3]; after 6 hours) | Increase or decrease ([3]; after 6 hours vs 15 minutes) | Increase or decrease ([3]; after 4 hours vs 15 minutes) | Number of times when compound is affected [4] [times] | Increase or decrease [4] | Rate of increase or decrease ([3]; after 4 hours) | further results
N[C@@H](CCC(=O)N[C@@H](CS)C(=O)O)C(=O)O [5-Glutamylcysteine] | 1.33 | Increase |  | Increase |  |  | Different from individual |  |  |  | Rate of increase or decrease (second value, decrease) ([3]; after 4 hours): 0.70; Rate of increase or decrease (first value, increase) ([3]; after 4 hours): 1.79
C[C@H](CCC(=O)O)[C@H]1CC[C@H]2[C@@H]3[C@H](O)C[C@@H]4C[C@H](O)CC[C@]4(C)[C@H]3C[C@H](O)[C@]12C [Cholic acid] | 1.36 | Increase |  |  |  |  |  | 6 | Decrease |  | Rate of increase or decrease ([2]; freezing and thawing 10 times): 3.26; Increase or decrease [2, 12]: Increase; Rate of increase or decrease ([4]; detection intensity relative to 1 at 2 times): 0.57; Rate of increase or decrease ([3]; after 12 hours): 1.99; Increase or decrease ([3]; after 12 hours vs 15 minutes): Increase
Nc1ccn([C@@H]2O[C@H](COP(=O)(O)O)[C@@H](O)[C@H]2O)c(=O)n1 [Cytidine monophosphate] | 1.34 | Increase | 1.98 | Increase |  |  | Increase |  |  | 1.75 | 
NCCc1ccc(O)c(O)c1 [Dopamine] | 1.43 | Increase |  |  | 0.53 | Decrease |  |  |  |  | Rate of increase or decrease ([8]; detection intensity relative to 1 at 2 times, freezing and thawing 4 times): 0.53; Increase or decrease ([8]; detection intensity, freezing and thawing 4 times vs 2 times): Decrease; Rate of increase or decrease ([9]; detection intensity relative to 1 at 30 minutes, after 1 hour): 0.64; Increase or decrease ([9]; detection intensity, after 1 hour vs 30 minutes): Decrease; Rate of increase or decrease ([10]; detection intensity relative to 1 at 15 minutes, after 4 hours): 1.50; Increase or decrease ([10]; detection intensity, after 4 hours vs 15 minutes): Increase; Rate of increase or decrease ([7]; after 12 hours from blood collection to centrifugation): 1.39; Increase or decrease [7]: Increase; Time when compound is affected [7]: After 12 hours
Nc1nc2c(ncn2[C@@H]2O[C@H](COP(=O)(O)O)[C@@H](O)[C@H]2O)c(=O)[nH]1 [Guanosine monophosphate] |  | Different from individual |  |  |  |  | Increase |  |  | 1.89 | Rate of increase or decrease (second value, decrease) ([1]; different from individual to individual, individuals with decrease, relative to 1 at 1 minute or less, collection to cooling 5 minutes): 0.59; Rate of increase or decrease (first value, increase) ([1]; different from individual to individual, individuals with increase, relative to 1 at 1 minute or less, collection to cooling 5 minutes): 1.47; Rate of increase or decrease ([2]; freezing and thawing 6 times): 1.95; Increase or decrease ([2]; freezing and thawing 6 times vs 2 times): Increase
C[S+](CC[C@H](N)C(=O)[O-])C[C@H]1O[C@@H](n2cnc3c(N)ncnc32)[C@H](O)[C@@H]1O (stereo partly drawn) [S-adenosylmethionine] | 1.60 | Increase | 1.33 | Increase | 0.62 | Decrease |  |  |  |  | 

Now from value to molecule, other results behind:

Rate of increase or decrease [1] | Increase or decrease [1] | Rate of increase or decrease ([2]; freezing and thawing 4 times) | Increase or decrease [2, 11] | Rate of increase or decrease ([3]; after 6 hours) | Increase or decrease ([3]; after 6 hours vs 15 minutes) | Increase or decrease ([3]; after 4 hours vs 15 minutes) | Number of times when compound is affected [4] [times] | Increase or decrease [4] | Rate of increase or decrease ([3]; after 4 hours) | Compound | further results
1.50 | Increase | 1.76 | Increase | 0.70 | Decrease |  |  |  |  | NCCCC(=O)O [4-Aminobutyric acid] | 
0.66 | Decrease |  |  |  |  |  | 6 | Different from individual |  | CN(C)CC(=O)O [Dimethylglycine] | Rate of increase or decrease ([5]; detection intensity relative to 1 at 15 minutes, after 12 hours): 1.41; Increase or decrease ([5]; detection intensity, after 12 hours vs 15 minutes): Increase; Rate of increase or decrease ([6]; detection intensity relative to 1 at 2 times, freezing and thawing 10 times): 1.34; Increase or decrease ([6]; detection intensity, freezing and thawing 10 times vs 2 times): Increase; Rate of increase or decrease ([2]; freezing and thawing 10 times): 1.37; Increase or decrease [2, 12]: Increase; Rate of increase or decrease [4, 13]: 1.34; Rate of increase or decrease [4, 14]: 0.61; Increase or decrease ([3]; after 12 hours vs 15 minutes): Different from individual; Rate of increase or decrease (second value, decrease) ([3]; after 12 hours): 0.63; Rate of increase or decrease (first value, increase) ([3]; after 12 hours): 1.57
2.30 | Increase | 0.95 | Decrease |  |  | Increase | 6 | Different from individual | 2.57 | N[C@@H](Cc1ccc(O)c(O)c1)C(=O)O [Dopa] | Rate of increase or decrease [4, 13]: 1.30; Rate of increase or decrease [4, 14]: 0.31; Rate of increase or decrease ([7]; after 4 hours from blood collection to centrifugation): 0.56; Increase or decrease [7]: Decrease; Time when compound is affected [7]: After 4 hours
